Measurements taken from article PMC8703884, “Synthesis and Biological Evaluation of S-, O- and Se-Containing Dispirooxindoles” (Molecules, 2021).

Assays:
[1] = test system: MCF7 breast cancer cell line; experiment: MTT cytotoxicity test, MCF7; assay type: cell-based; settings: Homo sapiens, 72 h incubation
Protocol: (§1) MTT test. […] Assays were performed in triplicates.

[2] = test system: PC3 human prostate cancer cell line; experiment: MTT cytotoxicity test, PC3; assay type: cell-based; settings: for CC50: Homo sapiens
[3] = MTT cytotoxicity test, Hek293T; assay type: cell-based; settings: human, 72 h incubation
[4] = test system: A549 human lung adenocarcinoma epithelial cell line; experiment: MTT cytotoxicity test, A549; assay type: cell-based; settings: 72 h incubation
[5] = MTT cytotoxicity test, VA13; assay type: cell-based; settings: human, VA13 SV40-transformed normal lung fibroblast cells, 72 h incubation
Protocol: as §1

[6] = test system: HCT116^+/+ human colon cancer cells (p53 positive); experiment: MTT cytotoxicity test, HCT116 p53+/+; settings: for CC50: Homo sapiens, HCT-116, read-out: CC50, HCT^+/+
Source text: (§2) The used models included human prostate cancer cell lines LNCaP and PC3, breast cancer cell line (MCF-7), human colon cancer cells (HCT116^+/+, p53 positive, p53^+/+ and HCT116^−/−, p53 negative, p53^−/−), human lung adenocarcinoma epithelial cell line (A549), SV40-transformed normal human lung fibroblast cells (VA13), as well as human embryonic kidney 293 cells (Hek293) stably expressing SV40 large T antigen (Hek293T). The cytotoxicity of the evaluated molecules was properly assessed using a MTT assay based on the modified approach reported by Ferrari and colleagues.
(§3) To further elucidate the dominant mode of action, we used HCT116^+/+ and HCT116^−/− cells by analogy with the paper published by Shangary and colleagues. This isogenic cell line is commonly applied to investigate the p53/MDM2-dependent mode of action.
(§4) MTT test. The MTT assay was carried out according to [35] with few modifications; 3000 Cells (for HEK293T, A549 and MCF7cell lines) or 4000 cells (for VA13 cell line) were seeded in each well of a 96-well plate. […] Assays were performed in triplicates. […] The MTT solution was then discarded and 140 µL of DMSO was added. The plates were swayed on a shaker (60 rpm) to solubilize the formazan. […] The analysis of cytotoxicity and the estimation of IC50 values were carried out with the built-in functions in the GraphPad Prism program (GraphPad Software, Inc., San Diego, CA) P53 activation.

[7] = test system: LNCaP human prostate cancer cell line; experiment: MTT cytotoxicity test, LNCaP; assay type: cell-based; settings: for CC50: Homo sapiens, LNCaP, read-out: CC50, LNCaP; for CC50 / CC50, LNCaP: MTT test
[8] = test system: HCT116^−/− human colon cancer cells (p53 negative); experiment: MTT cytotoxicity test, HCT116 p53-/-; settings: HCT-116, read-out: CC50, HCT^−/−
Source text: as §2, §3, §4

[9] = ratio of CC50 values of the cell line pair

COc1ccc(N2C(=O)C3(CN(C)CC34C(=O)Nc3ccccc34)NC2=S)cc1 (stereo not drawn) [Compound 4e, 1′-Methyl-1-(4-methoxyphenyl)-2-thioxodispiro[imidazolidine-4,3′-pyrrolidine-4′,3″-indoline]-2″,5-dione]
CC50 [1]: 22.8 ± 5.6 µM
CC50 [2]: > 100 µM
CC50 at 72 h [3]: 6.5 ± 0.9 µM
CC50 [4]: 18.9 ± 3.1 µM
CC50 at 72 h [5]: 13.2 ± 2.3 µM
melting point: 155 to 156 °C
CC50 [6]: 27.9 ± 6.94 µM
CC50 [7]: 3.45 ± 0.45 µM
selectivity index S for LNCaP/PC3 cells [7, 9]: > 30
CC50 [8]: 36 ± 12.6 µM

CCOc1ccc(N2C(=O)C3(CN(C)CC34C(=O)Nc3ccccc34)NC2=S)cc1 (stereo not drawn) [Compound 4g, 1′-Methyl-1-(4-ethoxyphenyl)-2-thioxodispiro[imidazolidine-4,3′-pyrrolidine-4′,3″-indoline]-2″,5-dione]
CC50 [1]: 75.2 ± 29.3 µM
CC50 [2]: > 100 µM
CC50 at 72 h [3]: 30.2 ± 8.2 µM
CC50 [4]: 38.2 ± 11.5 µM
CC50 at 72 h [5]: 73.6 ± 23.4 µM
melting point: 240 to 241 °C
CC50 [6]: > 100 µM
CC50 [7]: > 100 µM
CC50 [8]: > 100 µM

CCOc1ccc(N2C(=O)C3(CN(C)CC34C(=O)Nc3ccc(Cl)cc34)NC2=S)cc1 (stereo not drawn) [Compound 4h, 5″-Chloro-1′-methyl-1-(4-ethoxyphenyl)-2-thioxodispiro[imidazolidine-4,3′-pyrrolidine-4′,3″-indoline]-2″,5-dione]
CC50 [1]: 8.5 ± 1.2 µM
CC50, PC3 [2]: no activity at all
CC50 [2]: > 100 µM
CC50 at 72 h [3]: 6.7 ± 0.9 µM
CC50 [4]: 6.2 ± 2.1 µM
CC50 at 72 h [5]: 6.3 ± 1.1 µM
melting point: 268 to 271 °C
CC50 [6]: > 100 µM
CC50 [7]: > 100 µM
CC50, LNCaP [7]: no activity at all
CC50 [8]: > 100 µM

Cc1ccc(N2C(=O)C3(CN(C)CC34C(=O)Nc3ccccc34)NC2=S)cc1 (stereo not drawn) [Compound 4i, 1′-Methyl-1-(p-tolyl)-2-thioxodispiro[imidazolidine-4,3′-pyrrolidine-4′,3″-indoline]-2″,5-dione]
CC50 [1]: 88.2 ± 32.2 µM
CC50 [2]: > 100 µM
CC50 at 72 h [3]: > 100 µM
CC50 [4]: > 100 µM
CC50 at 72 h [5]: > 100 µM
melting point: 155 to 157 °C
CC50 [6]: > 100 µM
CC50 [7]: > 100 µM
CC50 [8]: > 100 µM

Cc1ccc(N2C(=O)C3(CN(C)CC34C(=O)Nc3ccc(Cl)cc34)NC2=S)cc1 (stereo not drawn) [Compound 4j, 5″-Chloro-1′-methyl-1-(p-tolyl)-2-thioxodispiro[imidazolidine-4,3′-pyrrolidine-4′,3″-indoline]-2″,5-dione]
CC50 [1]: 13.7 ± 2.1 µM
CC50 [2]: > 100 µM
CC50 at 72 h [3]: 17.4 ± 2 µM
CC50 [4]: 62 ± 8.3 µM
CC50 at 72 h [5]: 27.2 ± 5.3 µM
melting point: 159 to 160 °C
CC50 [6]: > 100 µM
CC50 [7]: > 100 µM
CC50 [8]: > 100 µM

CN1CC2(NC(=S)N(c3ccc(Cl)cc3)C2=O)C2(C1)C(=O)Nc1ccc(Cl)cc12 (stereo not drawn) [Compound 4l, 5″-Chloro-1′-methyl-1-(4-chlorophenyl)-2-thioxodispiro[imidazolidine-4,3′-pyrrolidine-4′,3″-indoline]-2″,5-dione]
CC50 [1]: 19.1 ± 4.1 µM
CC50 [2]: 2.2 ± 0.7 µM
CC50 at 72 h [3]: 34 ± 3.4 µM
CC50 [4]: 37 ± 6.5 µM
CC50 at 72 h [5]: 30.4 ± 3 µM
melting point: 239 to 240 °C
CC50 [6]: 42.5 ± 9.1 µM
CC50 [7]: 4.4 ± 0.67 µM
CC50 [8]: 57.1 ± 5.76 µM

CN1CC2(NC(=S)N(c3ccc(F)cc3)C2=O)C2(C1)C(=O)Nc1ccccc12 (stereo not drawn) [Compound 4m, 1′-Methyl-1-(4-fluorophenyl)-2-thioxodispiro[imidazolidine-4,3′-pyrrolidine-4′,3″-indoline]-2″,5-dione]
CC50 [1]: 106 ± 43.1 µM
CC50 [2]: 1.93 ± 0.91 µM
CC50 at 72 h [3]: > 100 µM
CC50 [4]: > 100 µM
CC50 at 72 h [5]: 171 ± 15.8 µM
melting point: 273 to 274 °C
CC50 [6]: 23.3 ± 3.3 µM
CC50 [7]: 3.4 ± 0.7 µM
CC50 [8]: 42.4 ± 4.7 µM

CN1CC2(NC(=S)N(Cc3cccc(Cl)c3)C2=O)C2(C1)C(=O)Nc1ccccc12 (stereo not drawn) [Compound 4o, 1′-Methyl-1-(3-chlorobenzyl)-2-thioxodispiro[imidazolidine-4,3′-pyrrolidine-4′,3″-indoline]-2″,5-dione]
CC50 [1]: 23.2 ± 3.6 µM
CC50 [2]: > 100 µM
CC50 at 72 h [3]: 48 ± 5.3 µM
CC50 [4]: 53.4 ± 11.2 µM
CC50 at 72 h [5]: 36.3 ± 3.2 µM
melting point: 273 to 274 °C
CC50 [6]: > 100 µM
CC50 [7]: > 100 µM
CC50 [8]: > 100 µM

CN1CC2(NC(=S)N(Cc3cccc(Cl)c3)C2=O)C2(C1)C(=O)Nc1ccc(Cl)cc12 (stereo not drawn) [Compound 4p, 5″-Chloro-1′-methyl-1-(3-chlorobenzyl)-2-thioxodispiro[imidazolidine-4,3′-pyrrolidine-4′,3″-indoline]-2″,5-dione]
CC50 [1]: 6.6 ± 1 µM
CC50 [2]: 2.2 ± 1.4 µM
CC50 at 72 h [3]: 18.4 ± 1.7 µM
CC50 [4]: 11.3 ± 2.4 µM
CC50 at 72 h [5]: 12.3 ± 1.6 µM
melting point: 261 to 262 °C
CC50 [6]: 34.2 ± 5.7 µM
selectivity S against HCT116^+/+ over HCT116^−/− [6, 9]: > 2.9
CC50 [7]: 4.1 ± 0.1 µM
CC50 [8]: > 100 µM

CN1CC2(NC(=S)N(c3ccc(F)c(Cl)c3)C2=O)C2(C1)C(=O)Nc1ccccc12 (stereo not drawn) [Compound 4q, 1′-Methyl-1-(3-chloro-4-fluorophenyl)-2-thioxodispiro[imidazolidine-4,3′-pyrrolidine-4′,3″-indoline]-2″,5-dione]
CC50 [1]: 62.2 ± 27.7 µM
CC50 [2]: > 100 µM
CC50 at 72 h [3]: 69.1 ± 21 µM
CC50 [4]: > 100 µM
CC50 at 72 h [5]: 57.9 ± 18.3 µM
melting point: 252 to 254 °C
CC50 [6]: > 100 µM
CC50 [7]: > 100 µM
CC50 [8]: > 100 µM

CN1CC2(NC(=S)N(c3ccc(F)c(Cl)c3)C2=O)C2(C1)C(=O)Nc1ccc(Cl)cc12 (stereo not drawn) [Compound 4r, 5″-Chloro-1′-methyl-1-(3-chloro-4-fluorophenyl)-2-thioxodispiro[imidazolidine-4,3′-pyrrolidine-4′,3″-indoline]-2″,5-dione]
CC50 [1]: 14.1 ± 1.2 µM
CC50, PC3 [2]: absolutely inactive
CC50 [2]: > 100 µM
CC50 at 72 h [3]: 11.1 ± 1.3 µM
CC50 [4]: 14.1 ± 1.8 µM
CC50 at 72 h [5]: 13.9 ± 1.5 µM
melting point: 177 to 180 °C
CC50 [6]: > 100 µM
CC50 [7]: > 100 µM
CC50, LNCaP [7]: absolutely inactive
CC50 [8]: > 100 µM

CN1CC2(NC(=S)N(C3CC3)C2=O)C2(C1)C(=O)Nc1ccccc12 (stereo not drawn) [Compound 4s, 1′-Methyl-1-cyclopropyl-2-thioxodispiro[imidazolidine-4,3′-pyrrolidine-4′,3″-indoline]-2″,5-dione]
CC50 [1]: > 100 µM
CC50 [2]: > 100 µM
CC50 at 72 h [3]: > 100 µM
CC50 [4]: > 100 µM
CC50 at 72 h [5]: > 100 µM
melting point: 272 to 273 °C (dec.)
CC50 [6]: > 100 µM
CC50 [7]: > 100 µM
CC50 [8]: > 100 µM

CN1CC2(NC(=S)N(C3CC3)C2=O)C2(C1)C(=O)Nc1ccc(Cl)cc12 (stereo not drawn) [Compound 4t, 5″-Chloro-1′-methyl-1-cyclopropyl-2-thioxodispiro[imidazolidine-4,3′-pyrrolidine-4′,3″-indoline]-2″,5-dione]
CC50 [1]: > 100 µM
CC50 [2]: > 100 µM
CC50 at 72 h [3]: > 100 µM
CC50 [4]: > 100 µM
CC50 at 72 h [5]: > 100 µM
melting point: 275 to 276 °C
CC50 [6]: > 100 µM
CC50 [7]: > 100 µM
CC50 [8]: > 100 µM
